This note sets out measurements from ChEMBL document CHEMBL1152046, “Pyrrolooctahydroisoquinolines as potent and selective opioid receptor ligands: SAR analysis and docking studies” (Bioorg Med Chem Lett, 1997).

The target of test [1] is Delta-type opioid receptor (Mus musculus, UniProt P32300). The experiment in a line: inhibition of [3H]DADLE binding to delta-opioid receptor of mouse brain homogenates.
Test [2] has as its target Mu-type opioid receptor (Mus musculus, UniProt P42866). The experiment in a line: Inhibition of [3H]DAMGO from mouse brain homogenate Mu opioid receptor.
For test [3], the target named is Kappa-type opioid receptor (Mus musculus, UniProt P33534). Description: Binding affinity against Kappa opioid receptor using [3H]U-69593 radioligand in mouse brain homogenates. The class given is tissue-based.
Sequence of Kappa-type opioid receptor (P33534 whole entry): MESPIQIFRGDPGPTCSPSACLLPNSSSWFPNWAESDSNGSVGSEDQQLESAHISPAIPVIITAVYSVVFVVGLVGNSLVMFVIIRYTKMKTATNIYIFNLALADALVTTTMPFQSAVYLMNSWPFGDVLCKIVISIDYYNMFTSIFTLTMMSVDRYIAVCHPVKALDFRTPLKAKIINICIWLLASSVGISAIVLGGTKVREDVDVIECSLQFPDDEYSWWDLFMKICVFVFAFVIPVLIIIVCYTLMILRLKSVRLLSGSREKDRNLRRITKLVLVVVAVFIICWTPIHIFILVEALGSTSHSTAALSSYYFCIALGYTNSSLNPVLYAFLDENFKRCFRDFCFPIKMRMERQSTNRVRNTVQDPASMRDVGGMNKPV

As a reminder, the Ki is the equilibrium dissociation constant of an inhibitor or competing ligand from its target. Lower therefore signals tighter binding.

Sequence of Mu-type opioid receptor (P42866 whole entry): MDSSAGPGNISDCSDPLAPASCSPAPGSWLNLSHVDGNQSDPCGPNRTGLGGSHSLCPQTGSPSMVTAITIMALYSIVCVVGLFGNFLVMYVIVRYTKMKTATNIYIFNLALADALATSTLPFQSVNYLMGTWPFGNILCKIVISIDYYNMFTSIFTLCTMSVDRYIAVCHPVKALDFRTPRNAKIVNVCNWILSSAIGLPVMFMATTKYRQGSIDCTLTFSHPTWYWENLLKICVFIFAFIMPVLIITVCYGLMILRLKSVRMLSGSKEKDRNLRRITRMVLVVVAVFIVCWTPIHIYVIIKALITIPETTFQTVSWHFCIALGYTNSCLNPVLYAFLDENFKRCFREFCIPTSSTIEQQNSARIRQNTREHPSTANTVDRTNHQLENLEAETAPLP
Sequence of Delta-type opioid receptor (P32300 whole entry): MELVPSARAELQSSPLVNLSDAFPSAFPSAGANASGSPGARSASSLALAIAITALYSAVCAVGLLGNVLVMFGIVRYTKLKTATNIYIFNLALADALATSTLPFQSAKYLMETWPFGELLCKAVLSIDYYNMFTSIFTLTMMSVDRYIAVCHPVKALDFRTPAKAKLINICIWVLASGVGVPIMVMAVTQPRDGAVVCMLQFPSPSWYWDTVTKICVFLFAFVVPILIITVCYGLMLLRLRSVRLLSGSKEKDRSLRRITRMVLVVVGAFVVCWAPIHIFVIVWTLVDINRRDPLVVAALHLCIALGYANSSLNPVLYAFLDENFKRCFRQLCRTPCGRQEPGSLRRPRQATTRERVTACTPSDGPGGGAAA

As for `CCN1CC[C@]2(c3cccc(O)c3)Cc3[nH]c(C(=O)N(CC)CC)c(C)c3C[C@H]2C1`, the Ki in test [1] amounted to 0.95 nM.

On to `CN1CC[C@]2(c3cccc(O)c3)Cc3nc4ccccc4cc3C[C@H]2C1`, for which the figures for the Ki in test [2], in test [3] and in test [1] were 59.6 nM, 312 nM and 0.23 nM, respectively.

With `CCN1CC[C@]2(c3cccc(O)c3)Cc3[nH]c(C(N)=O)c(C)c3C[C@H]2C1`, the inhibition constant Ki turned out to be 139 nM in test [2], 70.4 nM in test [3] and 15.1 nM in test [1].

`CCN1CC[C@]2(c3cccc(O)c3)Cc3[nH]c(C(=O)N(C(C)C)C(C)C)c(C)c3C[C@H]2C1`: the Ki was 57.9 nM in test [2], greater than 1000 nM in test [3] and 2.6 nM in test [1].

`CCOC(=O)c1[nH]c2c(c1C)C[C@@]1(c3cccc(O)c3)CCN(CC)C[C@@H]1C2`: the Ki in test [2] is 141 nM; in test [3] it was 169 nM; in test [1] it was 2.4 nM.

For the molecule `CCN(CC)C(=O)c1[nH]c2c(c1C)C[C@@]1(c3cccc(O)c3)CCN(C)C[C@@H]1C2`, the Ki in test [2] was 89.4 nM; in test [3], greater than 1000 nM; in test [1], 3 nM.

Take `CCN1CC[C@]2(c3cccc(O)c3)Cc3c([nH]c(C(=S)N(CC)CC)c3C)C[C@H]2C1`: the Ki in test [2] worked out at 42 nM; in test [3], 449 nM; in test [1] it was 1.5 nM.

For `CCN1CC[C@]2(c3cccc(O)c3)Cc3[nH]c(C(=O)N(C)C)c(C)c3C[C@H]2C1`, the Ki in test [2] was 580 nM; in test [3] it was greater than 1000 nM; in test [1] it was 6.8 nM.
